pKi: −log10 of the molar value.
Assays:
[1] = target: T1, 5-hydroxytryptamine receptor 1A (Homo sapiens, UniProt P08908); assay: Binding affinity to human 5HT1A receptor
T1 sequence (P08908 whole entry): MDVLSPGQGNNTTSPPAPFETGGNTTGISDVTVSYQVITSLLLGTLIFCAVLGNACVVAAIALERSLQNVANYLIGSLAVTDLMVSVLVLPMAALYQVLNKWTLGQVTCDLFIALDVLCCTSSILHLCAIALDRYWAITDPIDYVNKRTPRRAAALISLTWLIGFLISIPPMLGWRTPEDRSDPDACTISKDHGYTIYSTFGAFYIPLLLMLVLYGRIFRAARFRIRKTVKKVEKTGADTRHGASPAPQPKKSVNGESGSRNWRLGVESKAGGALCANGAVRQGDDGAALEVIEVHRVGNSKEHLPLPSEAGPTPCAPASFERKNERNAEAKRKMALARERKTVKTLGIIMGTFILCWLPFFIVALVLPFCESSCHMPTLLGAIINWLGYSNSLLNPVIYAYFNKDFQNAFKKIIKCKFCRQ

D(1A) dopamine receptor [2] = target: T2, D(1A) dopamine receptor (Homo sapiens, UniProt P21728); assay: Binding affinity to human D1 receptor
T2 sequence (P21728 whole entry): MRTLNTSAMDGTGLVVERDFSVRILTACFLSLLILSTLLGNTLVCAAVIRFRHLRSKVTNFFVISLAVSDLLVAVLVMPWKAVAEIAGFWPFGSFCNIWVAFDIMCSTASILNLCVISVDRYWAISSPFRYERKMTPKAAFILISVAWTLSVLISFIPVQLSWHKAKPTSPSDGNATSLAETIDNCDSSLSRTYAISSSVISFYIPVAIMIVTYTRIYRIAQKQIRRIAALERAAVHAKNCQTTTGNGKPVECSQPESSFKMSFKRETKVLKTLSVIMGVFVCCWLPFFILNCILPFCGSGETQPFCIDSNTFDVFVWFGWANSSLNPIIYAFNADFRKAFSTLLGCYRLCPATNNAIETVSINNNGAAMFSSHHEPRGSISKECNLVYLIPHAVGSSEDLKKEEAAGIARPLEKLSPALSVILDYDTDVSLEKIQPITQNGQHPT

D(2) dopamine receptor [3] = target: T3, D(2) dopamine receptor (Homo sapiens, UniProt P14416); assay: Binding affinity to human D2 receptor
T3 sequence (P14416 whole entry): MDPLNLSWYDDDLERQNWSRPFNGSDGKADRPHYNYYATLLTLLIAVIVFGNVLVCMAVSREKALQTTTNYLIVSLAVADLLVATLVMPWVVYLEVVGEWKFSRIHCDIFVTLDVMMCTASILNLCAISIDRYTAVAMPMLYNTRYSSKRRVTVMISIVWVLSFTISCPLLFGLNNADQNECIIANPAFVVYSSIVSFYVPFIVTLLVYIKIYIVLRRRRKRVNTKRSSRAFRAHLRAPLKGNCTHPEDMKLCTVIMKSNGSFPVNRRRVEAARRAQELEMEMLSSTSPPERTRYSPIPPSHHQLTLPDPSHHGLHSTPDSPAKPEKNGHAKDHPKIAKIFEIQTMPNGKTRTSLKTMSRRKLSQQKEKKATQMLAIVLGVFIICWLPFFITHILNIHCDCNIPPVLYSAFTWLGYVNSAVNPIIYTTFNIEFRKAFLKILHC

[4] = target: T4, 5-hydroxytryptamine receptor 2A (Homo sapiens, UniProt P28223); assay: Inhibition of human 5HT2A receptor relative to control; design: concentration or dose not given beside the values; details: concentration not given here
T4 sequence (P28223 whole entry): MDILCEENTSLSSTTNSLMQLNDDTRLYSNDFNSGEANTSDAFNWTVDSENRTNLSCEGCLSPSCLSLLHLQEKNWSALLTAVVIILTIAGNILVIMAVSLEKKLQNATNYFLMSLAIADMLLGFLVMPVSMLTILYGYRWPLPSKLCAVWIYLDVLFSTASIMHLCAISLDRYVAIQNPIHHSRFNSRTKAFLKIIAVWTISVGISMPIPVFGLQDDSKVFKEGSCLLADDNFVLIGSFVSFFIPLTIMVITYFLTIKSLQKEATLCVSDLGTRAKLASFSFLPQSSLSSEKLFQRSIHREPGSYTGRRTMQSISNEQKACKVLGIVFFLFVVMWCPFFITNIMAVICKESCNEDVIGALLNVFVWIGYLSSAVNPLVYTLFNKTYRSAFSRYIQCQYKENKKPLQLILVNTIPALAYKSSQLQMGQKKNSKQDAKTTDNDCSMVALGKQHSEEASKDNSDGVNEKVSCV

[5] = target: D(1B) dopamine receptor (Homo sapiens) (UniProt P21918); assay: Inhibition of human D5 receptor relative to control; design: concentration or dose not given beside the values; details: concentration not given here
Sequence of D(1B) dopamine receptor (Homo sapiens) (P21918 whole entry): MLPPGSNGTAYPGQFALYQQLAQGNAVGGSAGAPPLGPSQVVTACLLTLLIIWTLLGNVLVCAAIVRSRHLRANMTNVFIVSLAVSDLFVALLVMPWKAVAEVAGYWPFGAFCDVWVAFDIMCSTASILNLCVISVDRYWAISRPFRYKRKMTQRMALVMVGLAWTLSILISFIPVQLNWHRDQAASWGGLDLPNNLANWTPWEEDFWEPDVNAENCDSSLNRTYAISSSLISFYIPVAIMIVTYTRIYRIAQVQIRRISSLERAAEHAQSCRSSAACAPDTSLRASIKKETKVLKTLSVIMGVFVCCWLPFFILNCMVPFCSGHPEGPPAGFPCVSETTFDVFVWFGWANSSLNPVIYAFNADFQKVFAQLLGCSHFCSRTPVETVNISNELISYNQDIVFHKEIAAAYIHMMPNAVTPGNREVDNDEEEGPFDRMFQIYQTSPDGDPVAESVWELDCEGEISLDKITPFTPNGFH

[6] = target: T4, 5-hydroxytryptamine receptor 2A
Description: Binding affinity to human 5HT2A receptor

[7] = target: T5, 5-hydroxytryptamine receptor 1A (Homo sapiens) (UniProt P08908); assay: Inhibition of human 5HT1A receptor relative to control; design: concentration or dose not given beside the values; details: concentration not given here
T5 sequence (whole entry): T1 sequence (P08908 whole entry)

D(2) dopamine receptor [8] = target: T3, D(2) dopamine receptor; assay: Inhibition of human D2 receptor relative to control; design: concentration or dose not given beside the values; details: concentration not given here
[9] = Microsomal stability in human liver microsomes assessed as parent compound remaining measured immediately; type: ADME, Microsome
[10] = Microsomal stability in human liver microsomes assessed as parent compound remaining measured after 15 mins; type: ADME, Microsome; details: 0.25 h
[11] = Microsomal stability in human liver microsomes assessed as parent compound remaining measured after 30 mins; type: ADME, Microsome; details: 0.5 h
[12] = Microsomal stability in human liver microsomes assessed as parent compound remaining measured after 60 mins; type: ADME, Microsome; details: 1 h
[13] = Microsomal stability in human liver microsomes assessed as parent compound remaining measured after 120 mins; type: ADME, Microsome; details: 2 h
D(1A) dopamine receptor [14] = target: T2, D(1A) dopamine receptor; assay: Inhibition of human D1 receptor relative to control; design: concentration or dose not given beside the values; details: concentration not given here

Stability [9] [%] | Stability [10] [%] | Stability [11] [%] | Stability [12] [%] | Stability [13] [%] | Structure (SMILES) | pKi [1] | pKi (D(1A) dopamine receptor [2]) | pKi (D(2) dopamine receptor [3]) | inhibition [4] [%] | inhibition [5] [%] | pKi [6] | inhibition [7] [%] | inhibition (D(2) dopamine receptor [8]) [%] | inhibition (D(1A) dopamine receptor [14]) [%]
– | – | – | – | – | C#CCOc1c(OC)cc2c3c1-c1cc([N+](=O)[O-])ccc1CC3N(C)CC2 (stereo not drawn) | 6.69 | 6.27 | 5.69 | < 50 | < 50 | – | – | – | –
– | – | – | – | – | C=CCOc1c(OC)cc2c3c1-c1cc(NC(C)=O)ccc1CC3N(C)CC2 (stereo not drawn) | – | 6.81 | – | – | < 50 | 5.91 | < 50 | < 50 | –
100 | 89.33 | 99.73 | 80.43 | 36.68 | CN1CCc2cccc3c2[C@H]1Cc1ccc(O)c(O)c1-3 [APOMORPHINE] | – | – | – | – | – | – | – | – | –
– | – | – | – | – | C#CCOc1c(OC)cc2c3c1-c1cc(N)ccc1CC3N(C)CC2 (stereo not drawn) | 6.37 | 6.15 | 6.37 | – | < 50 | 6.42 | – | – | –
100 | 99.76 | 97.8 | 95.6 | 102.69 | C#CCOc1c(OC)cc2c3c1-c1cc(NC(C)=O)ccc1CC3N(C)CC2 (stereo not drawn) | – | 7.24 | 6.07 | – | < 50 | 5.90 | < 50 | – | –
– | – | – | – | – | COc1cc2c3c(c1O)-c1cc([N+](=O)[O-])ccc1CC3N(C)CC2 (stereo not drawn) | 6.26 | 6.50 | 6.49 | – | < 50 | 6.04 | – | – | –
– | – | – | – | – | O=[N+]([O-])c1ccc2c(c1)-c1cccc3c1C(C2)NCC3 (stereo not drawn) | 6.46 | – | – | < 50 | < 50 | – | – | < 50 | < 50
– | – | – | – | – | CCCC(=O)Nc1ccc2c(c1)-c1cccc3c1C(C2)N(C)CC3 (stereo not drawn) | 7.08 | – | – | < 50 | < 50 | – | – | < 50 | < 50
– | – | – | – | – | COc1cc2c3c(c1OC)-c1cc(NC(C)=O)ccc1CC3N(C)CC2 (stereo not drawn) | – | 6.12 | 6.01 | < 50 | < 50 | – | < 50 | – | –
– | – | – | – | – | COc1cc2c3c(c1OC1CC1)-c1cc(N)ccc1CC3N(C)CC2 (stereo not drawn) | – | 5.95 | 6.02 | – | < 50 | 6.96 | < 50 | – | –
– | – | – | – | – | CC(=O)Nc1ccc2c(c1)-c1cccc3c1C(C2)N(C)CC3 (stereo not drawn) | 7.03 | – | – | – | < 50 | 5.97 | – | < 50 | < 50
– | – | – | – | – | COc1cc2c3c(c1OC1CC1)-c1cc([N+](=O)[O-])ccc1CC3N(C)CC2 (stereo not drawn) | 6.36 | – | – | < 50 | < 50 | – | – | < 50 | < 50
– | – | – | – | – | C=CCOc1c(OC)cc2c3c1-c1cc([N+](=O)[O-])ccc1CC3N(C)CC2 (stereo not drawn) | 5.78 | – | – | < 50 | < 50 | – | – | < 50 | < 50
– | – | – | – | – | CN1CCc2cccc3c2C1Cc1ccc([N+](=O)[O-])cc1-3 (stereo not drawn) | 7.00 | 6.03 | – | < 50 | < 50 | – | – | < 50 | –
– | – | – | – | – | C=CCOc1c(OC)cc2c3c1-c1cc(N)ccc1CC3N(C)CC2 (stereo not drawn) | – | 6.08 | 6.12 | – | < 50 | 6.63 | < 50 | – | –
– | – | – | – | – | COc1cc2c3c(c1OC)-c1cc([N+](=O)[O-])ccc1CC3N(C)CC2 (stereo not drawn) | 6.34 | 6.14 | 6.32 | – | < 50 | 5.87 | – | – | –
– | – | – | – | – | COc1cc2c3c(c1O)-c1cc(N)ccc1CC3N(C)CC2 (stereo not drawn) | – | 6.52 | – | – | – | 6.07 | < 50 | – | –
– | – | – | – | – | COc1cc2c3c(c1OC)-c1cc(N)ccc1CC3N(C)CC2 (stereo not drawn) | 6.81 | 6.16 | 6.59 | – | < 50 | 6.23 | – | – | –
– | – | – | – | – | CN1CCc2cccc3c2C1Cc1ccc(N)cc1-3 (stereo not drawn) | 6.57 | – | 6.17 | – | < 50 | 6.17 | – | – | < 50

Structure (SMILES) | Stability [9] [%] | Stability [10] [%] | Stability [11] [%] | Stability [12] [%] | Stability [13] [%] | pKi [1] | pKi (D(1A) dopamine receptor [2]) | pKi (D(2) dopamine receptor [3]) | inhibition [4] [%] | inhibition [5] [%] | pKi [6] | inhibition [7] [%] | inhibition (D(2) dopamine receptor [8]) [%] | inhibition (D(1A) dopamine receptor [14]) [%]
CC(C)[N+](C)(CCOC(=O)C1c2ccccc2Oc2ccccc21)C(C)C [PROPANTHELINE] | 100 | 65.33 | 36.32 | 6.4 | 0.16 | – | – | – | – | – | – | – | – | –

Reference: ChEMBL document CHEMBL4627308, “Identification of C10 nitrogen-containing aporphines with dopamine D1 versus D5 receptor selectivity” (Bioorg Med Chem Lett, 2020)
